In patent US10064891B2, “Assembly of micelle aggregates of surfactant micelles and silver nanoparticles and use as antibacterial agent” (Otago Innovation Limited, priority 2013, dated 2018):

What was measured:
[1] = Determination of cmc / cmceff by electrical conductivity; format: physicochemical; conditions: H2O, 25° C.; for cmc of pure surfactant (cmceff at 0 mM AgNO3): no AgNO3
Protocol: Electrical conductivity measurements (mS cm^−1) were performed on five SDS solutions over a range of concentrations, with each solution containing a different amount of added AgNO3. […] Standard deviations for each data point are <0.014 mS cm^−1 in all cases. Closed symbols represent the data points used for the linear regression analysis below the cmc, and the open symbols for the analysis above the cmc. For each sample, regardless of the electrolyte content, as the SDS concentration was varied, an inflection point in the electrical conductivity was observed, indicating the cmc. A linear regression analysis of the conductivity data of each of the five samples was performed above and below the inflection point. In all cases, no significant deviations from linearity were observed over the concentration ranges. A dashed line has been added to one data set to indicate the point of intersection of the two corresponding linear equations, thus indicating the cmc. The cmc of pure SDS in H2O in the absence of AgNO3 was determined to be 8.1 mM. The curve represents a critical ‘cmc boundary’ for the SDS/AgNO3 system, i.e. the cmceff of SDS at a given AgNO3 concentration between 0-10 mM.
Following the procedure detailed in Example 1, electrical conductivity measurements were performed on sodium dodecylbenzenesulfonate (SDBS), sodium lauryl ether sulfate (SLES) and ammonium lauryl sulfate (ALS) solutions containing different amounts of added AgNO3 in order to determine the cmceff of each surfactant. […] Linear regression analysis was performed as described in Example 1. The cmc of pure SDBS, SLES and ALS at 25° C. was determined to be 1.4, 3.1 and 6.7 mM, respectively.

[2] = absence of any salts; cited from earlier work

Row | Compound | Cmceff ([1]; [AgNO3] 0.6 mM) | cmc of pure surfactant (cmceff at 0 mM AgNO3) [1] | cmc of pure SDS in water (known) [2] | Cmceff ([1]; [AgNO3] 2.9 mM)
1 | CCCCCCCCCCCCOS(=O)(=O)O.N [ALS, ammonium lauryl sulfate] | 4.6 mM | 6.7 mM | – | –
2 | CCCCCCCCCCCCOS(=O)(=O)[O-].[Na+] [SDS, sodium dodecyl sulfate] | – | 8.1 mM | 8.0 to 8.3 mM | –
3 | sodium lauryl ether sulfate [SLES] | 2.1 mM | 3.1 mM | – | 1.9 mM
